Reference: PMC8556439, “Modeling the time course of ComX: towards molecular process control for Bacillus wild-type cultivations” (AMB Express, 2021)

Tests used:
[1] = ref Rangarajan and Clarke [2015]; cited from earlier work
Experimental: (§1) To allow for this optimization strategy, profound quantitative knowledge must be gathered as an initial step. This was done in the presented study regarding surfactin production and ComX pheromone progression, providing new insights into this crosstalk. Several bioreactor batch fermentations with different initial glucose concentrations were performed to illustrate different lengths of growth phases of B. subtilis DSM 10^ T. Thereby the general progression of ComX activity was consistent for all bioreactor set-ups, regardless of varying experimental set-ups. During exponential growth, an initi ...

[2] = cited from earlier work
Experimental: The LC–MS analysis of extracellular ComX also confirmed degradation after reaching a peak during cultivation process, which was also detected by the bioassay (Additional file 1: Figure S2a). Resembling Henkel et al. ([2013]), experiments were performed with respect to (i) autodegradation, (ii) extracellular degradation and (iii) intracellular degradation (Fig. 1), to obtain deeper understanding of the degradation kinetics of ComX. […] Here, an increase in EACSP was initially observed and, after reaching a maximum, a slight downward trend was seen, which was also accompanied by calculated degradation rates. The highest modeled EACSP = 66.3 ∆A/(h·mL) was reached after 20.5 h, which is concomitant to the highest measured degradation rate after 16 h. […] However, to unveil a potential autodegradation effe ... || To allow for this optimization strategy, profound quantitative knowledge must be gathered as an initial step. This was done in the presented study regarding surfactin production and ComX pheromone progression, providing new insights into this crosstalk. Several bioreactor batch fermentations with different initial glucose concentrations were performed to illustrate different lengths of growth phases of B. subtilis DSM 10^ T. Thereby the general progression of ComX activity was consistent for all bioreactor set-ups, regardless of varying experimental set-ups. During exponential growth, an initi ...

extracellular proteases = experiment: ComX extracellular degradation in cell-free supernatant of bioreactor cultivation; type: in vitro ADME, B. subtilis DSM 10T; conditions: spectinomycin 100 µg/mL, incubated 120 rpm, 37 °C, sampled 0-8 h, ComX bioassay, biological duplicates
Experimental: (§2) Due to the high complexity of ComX purification, the pheromone was measured with a bioassay based on the principle provided by Magnuson et al. ([1994]). Thereby, reporter strain CT2 (∆comX::kan; PsrfA-lacZ) can be used as an assay reagent and a ComX-dependent expression of lacZ can be determined by measuring the β-galactosidase activity with the Miller assay (Miller [1972]). The employed bioassay is further in line with a recently published method, provided by Dogsa et al. ([2021]). A detailed description of the working principle and further validation experiments are given in the supplementary information. In brief, a main culture of strain CT2 was inoculated with preculture II to a starting OD600 of 0.1 and incubated for 3 h at 120 rpm and 37 °C. […] Bnk values were measured using the respective sterile cultivation medium instead of sampled cell-free supernatant. The limit of detection (LOD) and limit of quantification (LOQ) was calculated from 20 samples using Eqs. […]
Cell-free supernatant was obtained from bioreactor cultivation with 40 g/L glucose by two centrifugation steps for 30 min at 4816 g and 4 °C (Heraeus X3R, Thermo Fisher Scientific GmbH, Braunschweig, Germany). […] Samples were taken after t = 0, 1, 2, 3, 4, 6 and 8 h and analyzed for ComX and peptidase activity and the ComX degradation rate in (MU/h) was calculated from the measured data.

[3] = system: B. subtilis BKK31700 (∆comX); experiment: ComX intracellular degradation: ComX deficient strain cultivated in spent medium; type: in vitro ADME; conditions: ComX bioassay, biological duplicates
Experimental: as §2
(§3) For autodegradation studies, strain DSM 10^ T was additionally cultivated in 3000 mL shake flasks using MSM with 40 g/L glucose. […] The incubation was performed in biological duplicates for 24 h at 120 rpm and 37 °C and samples were taken regularly and analyzed for OD600, ComX and peptidase activity.

[4] = type: physicochemical; conditions: pH 7
Experimental: as §2, §3

PsrfA = conditions: ref Magnuson et al. [1994], Okada et al. [2005], [2007], Dogsa et al. [2021], cited from earlier work
Experimental: as §1

Row | Substance | pH at which surfactin precipitation may occur [1] | heat stability of ComX (time stable) ([2]; at 80 °C, ref Magnuson et al. ([1994])) | sensitivity of ComX to extracellular proteases ([2]; especially serine proteases, ref Spacapan et al. ([2018]) and Magnuson et al. ([1994])) | storage time after which a degradation effect was observed ([2]; purified ComX, storage, ref Dogsa et al. ([2021])) | stability of ComX in acidic environments ([2]; ref Okada et al. [2007]) | ComX degradation rate (highest) (extracellular proteases; cell-free supernatant from bioreactor cultivation 40 g/L glucose taken after approximately 16 h) | ComX degradation rate (extracellular proteases; cell-free supernatant from bioreactor cultivation 40 g/L glucose taken after approximately 35 h) | ComX activity remaining after 24 h of cultivation (intracellular degradation study) ([3]; BKK31700 cells in spent filtered medium of DSM 23778, 4 g/L glucose added, 24 h, 120 rpm, 37 °C) | initial ComX activity at t0 (intracellular degradation study) ([3]; washed BKK31700 cells resuspended in spent filtered medium of DSM 23778, 4 g/L glucose added) | remaining ComX activity after 8 h of incubation (autodegradation study) [4] | ComX concentration at saturation of response (PsrfA) | EC50 (PsrfA; read-out: ComX concentration at half maximum response)
1 | surfactin | 5.0 to 6.0 pH | – | – | – | – | – | – | – | – | – | – | –
2 | ADPITRQ WGD [ComX, quorum sensing pheromone of B. subtilis, farnesylated peptide secreted into culture supernatant; not purified, measured in supernatant] | – | 12 h | sensitive to extracellular proteases | 100 days | does not appear to be stable | 9.2 ± 2.1 MU/h | 8.4 ± 0.5 MU/h | 103.2 ± 11.4 MU | 96.5 ± 3.0 MU | 251.1 ± 17.1 MU | around 10 nM | 3 to 4 nM
